Legend:
[1] = target: T1, NHE3 (Homo sapiens, UniProt P48764); assay: Cell-based assay of NHE-3 activity (pre-incubation inhibition), human; conditions: human Preincubation; for IC50 / pIC50: 0-30 μM test compound
T1 construct: expressed in transfected cells
T1 sequence (P48764 26-834): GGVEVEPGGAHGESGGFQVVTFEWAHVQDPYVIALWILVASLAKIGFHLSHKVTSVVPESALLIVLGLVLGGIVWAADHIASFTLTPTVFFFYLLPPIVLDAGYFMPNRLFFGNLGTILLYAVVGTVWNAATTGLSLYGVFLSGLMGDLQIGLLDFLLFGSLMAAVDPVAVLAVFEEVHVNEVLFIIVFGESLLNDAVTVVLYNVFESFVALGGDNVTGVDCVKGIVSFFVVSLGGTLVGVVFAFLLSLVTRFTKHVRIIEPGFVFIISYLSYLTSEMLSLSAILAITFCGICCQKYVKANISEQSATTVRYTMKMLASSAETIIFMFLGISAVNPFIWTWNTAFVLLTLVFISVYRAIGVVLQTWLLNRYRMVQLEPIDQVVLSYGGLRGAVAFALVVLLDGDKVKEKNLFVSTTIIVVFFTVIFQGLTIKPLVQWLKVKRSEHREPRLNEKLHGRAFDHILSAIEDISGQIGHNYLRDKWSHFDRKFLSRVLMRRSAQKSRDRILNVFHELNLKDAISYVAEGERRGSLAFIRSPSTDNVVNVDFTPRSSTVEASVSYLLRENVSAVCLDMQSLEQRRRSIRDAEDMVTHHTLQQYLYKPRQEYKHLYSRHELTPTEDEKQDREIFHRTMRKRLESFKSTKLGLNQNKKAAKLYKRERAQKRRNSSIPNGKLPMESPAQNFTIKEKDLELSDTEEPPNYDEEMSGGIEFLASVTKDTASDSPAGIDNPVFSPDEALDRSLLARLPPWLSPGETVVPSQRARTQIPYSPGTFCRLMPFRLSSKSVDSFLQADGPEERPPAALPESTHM
T1 sequence (Q99653 2-195 partner limits assumed): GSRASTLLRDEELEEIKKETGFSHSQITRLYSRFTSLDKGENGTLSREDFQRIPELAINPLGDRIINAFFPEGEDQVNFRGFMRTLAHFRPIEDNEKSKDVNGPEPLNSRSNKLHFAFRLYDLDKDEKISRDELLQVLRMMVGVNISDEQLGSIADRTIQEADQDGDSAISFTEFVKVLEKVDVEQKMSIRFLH
Method in brief: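 Activity read as initial rate of BCECF fluorescence ratio change per minute (ex 439/505, em 538 nm) following NH4Cl prepulse acid loading. Compound (0–30 μM) present during 10 min Na+-free acidification at room temperature; cells were PS120 fibroblasts stably co-expressing human NHE3 and NHERF2.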

[2] = target: T1, NHE3; assay: Cell-based assay of NHE-3 activity (persistent inhibition), human; conditions: human Persistence, 60 min incubation then washout
Method in brief: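 Persistent inhibition: compound (0-30 μM, 60 min, RT, NaCl-HEPES pH 7.4) removed before assay. Human NHE3/NHERF2 PS120 cells were then BCECF-loaded during NH4Cl pulse (30 min, 37 °C), acidified in Na+-free buffer, and Na+ added 10 min after washout; antiport measured as initial fluorescence-ratio change per minute.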

Row | % inhibition [1] | % inhibition [2] | IC50 [1] [nM] | pIC50 [2] | pIC50 [1] | IC50 [2] [nM] | SMILES
1 | B (40-70%) | C (>70%) |  |  |  |  | COc1cc(Cl)cc2c1C[C@H](N1CCC[C@@H](N)C1)[C@H]2Oc1ccc(S(=O)(=O)NCCOCCOCCNC(=O)NCCCCNC(=O)NCCOCCOCCNS(=O)(=O)c2ccc(O[C@H]3c4cc(Cl)cc(OC)c4C[C@@H]3N3CCC[C@@H](N)C3)cc2)cc1 [Example 5, 3-[2-(2-[2-[(4-[[(1S,2S)-2-[(3R)-3-Aminopiperidin-1 yl]-6-chloro-4-methoxy-2,3-dihydro-1H-inden-1-yl]oxy]benzene)sulfonamido]ethoxy]ethoxy)ethyl]-1-[4-[[(2-(2-[2-[(4-[[(1S,2S)-2-[(3R)-3-aminopiperidin-1-yl]-6-chloro-4-methoxy-2,3-dihydro-1H-inden-1-yl]oxy]benzene)sulfonamido]ethoxy]ethoxy)ethyl]carbamoyl]amino)butyl]urea; bis(trifluoroacetic acid)]
2 | C (>70%) | A (NHE3 < 40%) | 100 to 1000 | A (NHE3 pIC50 < 6) |  |  | COc1cc(Cl)cc2c1C[C@H](N(C)C)[C@H]2Oc1ccc(S(=O)(=O)NCCOCCOCCNC(=O)NCCCCNC(=O)NCCOCCOCCNS(=O)(=O)c2ccc(O[C@H]3c4cc(Cl)cc(OC)c4C[C@@H]3N(C)C)cc2)cc1 [Example 15, 3-[2-(2-[2-[(4-[[(1S,2S)-6-Chloro-2-(dimethylamino)-4-methoxy-2,3-dihydro-1H-inden-1-yl]oxy]benzene)sulfonamido]ethoxy]ethoxy)ethyl]-1-[4-([[2-(2-[2-[(4-[[(1S,2S)-6-chloro-2-(dimethylamino)-4-methoxy-2,3-dihydro-1H-inden-1-yl]oxy]benzene)sulfonamido]ethoxy]ethoxy)ethyl]carbamoyl]amino)butyl]urea; bis(trifluoroacetic acid)]
3 | C (>70%) | C (>70%) |  |  | C (NHE3 pIC50 > 7) | 100 to 1000 | N#Cc1cc(Cl)cc2c1C[C@H](N1C[C@@H]3C[C@H]1CN3)[C@H]2Oc1ccc(S(=O)(=O)N[C@@H]2CCN(CCOCCNC(=O)NCCCCNC(=O)NCCOCCN3CC[C@@H](NS(=O)(=O)c4ccc(O[C@H]5c6cc(Cl)cc(C#N)c6C[C@@H]5N5C[C@@H]6C[C@H]5CN6)cc4)C3)C2)cc1 [Example 131, 4-([(1S,2S)-2-[(1S,4S)-2,5-Diazabicyclo[2.2.1]heptan-2-yl]-6-chloro-4-cyano-2,3-dihydro-1H-inden-1-yl]oxy)-N—[(R)-1-(20-[(R)-3-([4-([(1S,2S)-2-[(1S,4S)-2,5-diazabicyclo[2.2.1]heptan-2-yl]-6-chloro-4-cyano-2,3-dihydro-1H-inden-1-yl]oxy)phenyl]sulfonamido)pyrrolidin-1-yl]-7,14-dioxo-3,18-dioxa-6,8,13,15-tetraazaicosyl)pyrrolidin-3-yl]benzenesulfonamide; bis(trifluoroacetic acid)]
4 | C (>70%) | C (>70%) |  | C (NHE3 pIC50 > 7) | C (NHE3 pIC50 > 7) |  | Cc1cc(S(=O)(=O)N[C@H]2CCN(CCOCCNC(=O)NCCCCNC(=O)NCCOCCN3CC[C@H](NS(=O)(=O)c4ccc(O[C@H]5c6cc(Cl)cc(C#N)c6C[C@@H]5N(C)C)c(C)c4)C3=O)C2=O)ccc1O[C@H]1c2cc(Cl)cc(C#N)c2C[C@@H]1N(C)C [Example 92, 1-(2-[2-[(3S)-3-[(4-[[(1S,2S)-6-Chloro-4-cyano-2-(dimethylamino)-2,3-dihydro-1H-inden-1-yl]oxy]-3-methylbenzene)sulfonamido]-2-oxopyrrolidin-1-yl]ethoxy]ethyl)-3-(4-[[(2-[2-[(3S)-3-[(4-[[(1S,2S)-6-chloro-4-cyano-2-(dimethylamino)-2,3-dihydro-1H-inden-1-yl]oxy]-3-methylbenzene)sulfonamido]-2-oxopyrrolidin-1-yl]ethoxy]ethyl)carbamoyl]amino]butyl)urea; bis(trifluoroacetic acid)]
5 | C (>70%) | C (>70%) |  |  |  |  | N[C@@H]1CCCN([C@H]2Cc3c(Cl)cc(Cl)cc3[C@@H]2Oc2ccc(S(=O)(=O)NCCOCCOCCNC(=O)NCCCCNC(=O)NCCOCCOCCNS(=O)(=O)c3ccc(O[C@H]4c5cc(Cl)cc(Cl)c5C[C@@H]4N4CCC[C@@H](N)C4)c(F)c3)cc2F)C1 [Example 2]
6 | C (>70%) | C (>70%) |  | C (NHE3 pIC50 > 7) | C (NHE3 pIC50 > 7) |  | C[C@H]1CN([C@H]2Cc3c(C#N)cc(Cl)cc3[C@@H]2Oc2ccc(S(=O)(=O)N[C@H]3CCN(CCOCCNC(=O)NCCCCNC(=O)NCCOCCN4CC[C@H](NS(=O)(=O)c5ccc(O[C@H]6c7cc(Cl)cc(C#N)c7C[C@@H]6N6CCN[C@@H](C)C6)cc5)C4)C3)cc2)CCN1 [Example 134, 4-([(1S,2S)-6-Chloro-4-cyano-2-[(S)-3-methylpiperazin-1-yl]-2,3-dihydro-1H-inden-1-yl]oxy)-N—[(S)-1-(20-[(S)-3-([4-([(1S,2S)-6-chloro-4-cyano-2-[(S)-3-methylpiperazin-1-yl]-2,3-dihydro-1H-inden-1-yl]oxy)phenyl]sulfonamido)pyrrolidin-1-yl]-7,14-dioxo-3,18-dioxa-6,8,13,15-tetraazaicosyl)pyrrolidin-3-yl]benzenesulfonamide; bis(trifluoroacetic acid)]
7 | B (40-70%) | C (>70%) | 100 to 1000 |  |  | 100 to 1000 | Cc1cc(S(=O)(=O)N2CC[C@H](COc3ccnc(CNC(=O)NCCCCNC(=O)NCc4cc(OC[C@H]5CCN(S(=O)(=O)c6ccc(O[C@H]7c8cc(Cl)cc(Cl)c8C[C@@H]7N(C)C)c(C)c6)C5)ccn4)c3)C2)ccc1O[C@H]1c2cc(Cl)cc(Cl)c2C[C@@H]1N(C)C [Example 48, 3-[(4-[[(3S)-1-[(4-[[(1S,2S)-4,6-Dichloro-2-(dimethylamino)-2,3-dihydro-1H-inden-1-yl]oxy]-3-methylbenzene)sulfonyl]pyrrolidin-3-yl]methoxy]pyridin-2-yl)methyl]-1-[4-([[(4-[[(3S)-1-[(4-[[(1S,2S)-4,6-dichloro-2-(dimethylamino)-2,3-dihydro-1H-inden-1-yl]oxy]-3-methylbenzene)sulfonyl]pyrrolidin-3-yl]methoxy]pyridin-2-yl)methyl]carbamoyl]amino)butyl]urea]
8 | C (>70%) | C (>70%) |  | C (NHE3 pIC50 > 7) | C (NHE3 pIC50 > 7) |  | N#Cc1cc(Cl)cc2c1C[C@H](N1CCNCC1)[C@H]2Oc1ccc(S(=O)(=O)N[C@@H]2CCN(C(=O)CCCNC(=O)NCCCCNC(=O)NCCCC(=O)N3CC[C@@H](NS(=O)(=O)c4ccc(O[C@H]5c6cc(Cl)cc(C#N)c6C[C@@H]5N5CCNCC5)cc4)C3)C2)cc1 [Example 142, 4-([(1S,2S)-6-Chloro-4-cyano-2-(piperazin-1-yl)-2,3-dihydro-1H-inden-1-yl]oxy)-N—[(R)-1-(18-[(R)-3-([4-([(1S,2S)-6-chloro-4-cyano-2-(piperazin-1-yl)-2,3-dihydro-1H-inden-1-yl]oxy)phenyl]sulfonamido)pyrrolidin-1-yl]-6,13,18-trioxo-5,7,12,14-tetraazaoctadecanoyl)pyrrolidin-3-yl]benzenesulfonamide]
9 | C (>70%) | C (>70%) |  | C (NHE3 pIC50 > 7) | C (NHE3 pIC50 > 7) |  | Cc1cc(S(=O)(=O)N[C@H]2CCN(CCOCCNC(=O)NCCCCNC(=O)NCCOCCN3CC[C@H](NS(=O)(=O)c4ccc(O[C@H]5c6cc(Cl)cc(C)c6C[C@@H]5N5CCC[C@@H](N(C)C)C5)c(C)c4)C3)C2)ccc1O[C@H]1c2cc(Cl)cc(C)c2C[C@@H]1N1CCC[C@@H](N(C)C)C1 [Example 114, 4-([(1S,2S)-6-Chloro-2-[(R)-3-(dimethylamino)piperidin-1-yl]-4-methyl-2,3-dihydro-1H-inden-1-yl]oxy)-N—[(S)-1-(20-[(S)-3-([4-([(1S,2S)-6-chloro-2-[(R)-3-(dimethylamino)piperidin-1-yl]-4-methyl-2,3-dihydro-1H-inden-1-yl]oxy)-3-methylphenyl]sulfonamido)pyrrolidin-1-yl]-7,14-dioxo-3,18-dioxa-6,8,13,15-tetraazaicosyl)pyrrolidin-3-yl]-3-methylbenzenesulfonamide; tetra(trifluoroacetate)]
